What all share (assay): Off-chip Mobility Shift Assay (MSA method), kinase inhibition
Common to all, as to format: biochemical

The target in one experiment is T1, CGK2 (Homo sapiens, UniProt Q13237).
T1 sequence (Q13237 1-762): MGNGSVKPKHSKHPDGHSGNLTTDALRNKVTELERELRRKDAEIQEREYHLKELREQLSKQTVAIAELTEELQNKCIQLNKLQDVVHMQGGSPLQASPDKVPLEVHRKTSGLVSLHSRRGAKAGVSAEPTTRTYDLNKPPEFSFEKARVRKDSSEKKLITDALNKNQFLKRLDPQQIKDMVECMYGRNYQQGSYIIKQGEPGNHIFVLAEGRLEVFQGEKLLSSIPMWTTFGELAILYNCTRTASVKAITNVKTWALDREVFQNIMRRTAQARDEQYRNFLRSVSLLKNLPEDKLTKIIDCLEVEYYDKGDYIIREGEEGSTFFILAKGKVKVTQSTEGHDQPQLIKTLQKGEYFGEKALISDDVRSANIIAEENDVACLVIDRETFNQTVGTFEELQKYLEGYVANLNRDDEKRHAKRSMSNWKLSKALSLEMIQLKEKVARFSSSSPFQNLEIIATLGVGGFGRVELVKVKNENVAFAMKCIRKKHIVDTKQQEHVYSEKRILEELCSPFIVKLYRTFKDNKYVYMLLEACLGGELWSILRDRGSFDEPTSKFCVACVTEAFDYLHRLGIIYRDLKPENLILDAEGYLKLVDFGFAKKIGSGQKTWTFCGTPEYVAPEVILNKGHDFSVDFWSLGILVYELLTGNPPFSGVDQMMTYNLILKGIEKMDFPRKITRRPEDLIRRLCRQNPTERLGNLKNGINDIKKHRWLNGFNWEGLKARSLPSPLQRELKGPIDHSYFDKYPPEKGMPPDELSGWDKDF
The following applies: for inhibition at 0.1 µM: read-out: inhibition (%) CGK2. How it is done:
(§1) For compound k-1:B-1, inhibitory activity evaluation (calculation of 50% inhibitory concentration (IC50)) was performed on 8 kinds of kinases (CGK2, LATS2, MSK1, p70S6K, PKACα, PKACβ, SGK2, SGK3). The activity was measured using the Off-chip Mobility Shift Assay (MSA method) described below. The compound was added such that the test concentration of k-1:B-1 was in 10 steps from the final concentration of 10 μM to 0.3 nM.
(§2) As an analysis method of the data, the mean signal of the control well containing all reaction components was set to 0% inhibition, the mean signal without enzyme addition was set to 100% inhibition, and the inhibition rate was calculated from the mean signal of 2 wells of each test substance test. The IC50 value was obtained by approximating a plot based on the test substance concentration and inhibition rate to a 4 parameter logistics curve by using the Excel Solver add-in and by the non-linear least squares method.
(§3) 5 μL of k-1:B-1 solution at 4-fold concentration, 5 μL of substrate/ATP/metal solution at 4-fold concentration, and 10 μL of kinase solution at 2-fold concentration, each prepared with assay buffer (20 mM HEPES, 0.01% Triton X-100, 2 mM DTT, pH 7.5), were mixed in the wells of a polypropylene 384-well plate and reacted at room temperature for 1 or 5 hr. Successively, 70 μL of Termination Buffer (QuickScout Screening Assist MSA; Carna Biosciences) was added to discontinue the reaction. Then, the substrate peptide and the phosphorylated peptide in the reaction solution were separated and quantified by the LabChip system (Perkin Elmer). The kinase reaction was evaluated by the resultant product ratio (P/(P+S)) calculated from the substrate peptide peak height (S) and the phosphorylated peptide peak height (P).
(§4) For compounds k-1:H-7, k-1:H-1, k-1:D-1, k-1:J-1, and k-1:B-1, inhibitory rate at 100 nM was calculated on 8 kinds of kinases (CGK2, LATS2, MSK1, p70S6K, PKACα, PKACβ, SGK2, SGK3). The activity was measured using the MSA method. As an analysis method of the data, the mean signal of the control well containing all reaction components was set to 0% inhibition, the mean signal without enzyme addition was set to 100% inhibition, and the inhibition rate was calculated from the mean signal of 2 wells of each test substance test.
as §3, with “a compound” for “k-1:B-1”

In a further experiment the target is MSK1 (Homo sapiens, UniProt O75582). To be noted: for inhibition at 0.1 µM: read-out: inhibition (%) MSK1. How it is done: as §1, §2, §3, §4
Sequence of MSK1 (O75582 whole entry): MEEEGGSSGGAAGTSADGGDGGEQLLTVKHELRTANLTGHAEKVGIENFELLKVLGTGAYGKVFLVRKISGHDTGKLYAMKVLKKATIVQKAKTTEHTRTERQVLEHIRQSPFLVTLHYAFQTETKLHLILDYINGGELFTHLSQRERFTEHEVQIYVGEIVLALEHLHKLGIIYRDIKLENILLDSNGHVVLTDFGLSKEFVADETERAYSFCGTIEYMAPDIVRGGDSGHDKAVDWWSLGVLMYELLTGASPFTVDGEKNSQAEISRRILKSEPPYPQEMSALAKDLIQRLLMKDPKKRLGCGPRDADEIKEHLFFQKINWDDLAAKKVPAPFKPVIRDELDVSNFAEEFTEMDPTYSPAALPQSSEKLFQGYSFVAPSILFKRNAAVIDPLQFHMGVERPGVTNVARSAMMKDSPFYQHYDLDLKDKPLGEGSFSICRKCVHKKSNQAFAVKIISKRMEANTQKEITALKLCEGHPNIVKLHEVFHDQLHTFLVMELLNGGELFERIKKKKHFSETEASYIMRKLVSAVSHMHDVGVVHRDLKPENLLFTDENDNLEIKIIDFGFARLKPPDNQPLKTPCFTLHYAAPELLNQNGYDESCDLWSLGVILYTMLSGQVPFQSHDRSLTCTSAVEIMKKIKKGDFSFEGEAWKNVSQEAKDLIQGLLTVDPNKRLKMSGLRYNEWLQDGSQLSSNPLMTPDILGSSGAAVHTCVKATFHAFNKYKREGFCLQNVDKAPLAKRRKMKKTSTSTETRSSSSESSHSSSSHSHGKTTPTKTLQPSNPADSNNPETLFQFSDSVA
as §3, with “a compound” for “k-1:B-1”

The target in the next experiment is p70S6K (Homo sapiens, UniProt P23443). The following applies: for inhibition at 0.1 µM: read-out: inhibition (%) p70S6K. How it is done:
as §1, §2, §3, §4
as §3, with “a compound” for “k-1:B-1”

[1] abbreviates: MSA method, 10 steps from 10 μM to 0.3 nM.

Read-outs that look alike come from different tables or passages of the source.

Sequence of p70S6K (P23443 whole entry): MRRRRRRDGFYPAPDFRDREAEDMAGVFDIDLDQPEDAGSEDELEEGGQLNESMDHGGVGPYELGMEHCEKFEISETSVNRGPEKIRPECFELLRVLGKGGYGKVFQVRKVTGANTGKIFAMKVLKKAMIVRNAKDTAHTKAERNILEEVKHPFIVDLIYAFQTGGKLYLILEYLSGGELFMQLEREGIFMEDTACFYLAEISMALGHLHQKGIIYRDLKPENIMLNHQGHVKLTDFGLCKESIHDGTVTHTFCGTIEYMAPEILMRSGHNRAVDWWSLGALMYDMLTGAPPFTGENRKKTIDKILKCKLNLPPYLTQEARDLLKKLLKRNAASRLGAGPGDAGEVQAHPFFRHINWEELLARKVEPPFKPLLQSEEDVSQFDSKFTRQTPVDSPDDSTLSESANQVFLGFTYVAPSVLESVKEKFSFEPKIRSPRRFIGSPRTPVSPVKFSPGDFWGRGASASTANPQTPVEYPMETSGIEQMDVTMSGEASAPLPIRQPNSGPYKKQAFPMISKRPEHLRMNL

As a reminder, the inhibition is the change of the read-out against control, counted positive when it falls. With `CCC(=NNC(=O)CNc1ccccc1)c1ccc(O)c(C)c1O` [k-1:H-1], the inhibition at 0.1 µM on CGK2 (at 100 nM, MSA method) was determined as 77.6%; on MSK1 (at 100 nM, MSA method) it was 99.7%; at p70S6K (at 100 nM, MSA method) it was 82%.

As usually defined, the IC50 is the concentration that inhibits the measured activity by half. As to `CC/C(=N\NC(=O)C(C)Nc1ccccc1)c1ccc(O)c(C)c1O` (stereo not drawn) [k-1:B-1], the IC50 on CGK2 (setting [1]) was 29.9 nM; at MSK1 (setting [1]) it was 17.4 nM; on p70S6K (setting [1]) it was 41.5 nM. For the same compound, the inhibition at 0.1 µM turned out to be 83.2% at CGK2 (at 100 nM, MSA method); 87.7% on MSK1 (at 100 nM, MSA method); 67.6% on p70S6K (at 100 nM, MSA method).

As for `CC/C(=N\NC(=O)NCc1cccc(O)c1)c1ccc(O)c(C)c1O` [k-1:J-1], the inhibition at 0.1 µM is 51.3% on CGK2, 99.6% on MSK1 and 78.3% at p70S6K.

`CC/C(=N\NC(=O)CNc1cccc(O)c1)c1ccc(O)c(C)c1O` [k-1:D-1]: the inhibition at 0.1 µM was 97.2% at CGK2, 101% at MSK1 and 97.9% at p70S6K.

For `CCC(=NNC(=O)C(CC)Nc1ccccc1)c1ccc(O)c(C)c1O` (stereo not drawn) [k-1:H-7], the inhibition at 0.1 µM is 80.8% on CGK2 (at 100 nM, MSA method); 94.9% at MSK1 (at 100 nM, MSA method); 70.3% on p70S6K (at 100 nM, MSA method).
